# Measured values published in patent US8501440B2 (Case Western Reserve University, priority 2006, dated 2013).
# “Also recorded” adds a separate entry of the source.
# What was measured:
# [1] = target: T1, Insulin-like Growth Factor receptor (IGFR) (Homo sapiens, UniProt P08069); experiment: IGFR binding assay (microtiter plate antibody assay); conditions: relative to IGF-1
# T1 construct: expressed in transfected cells; host or cells: PEAK rapid cells, transient transfection, Triton X-100 lysate
# T1 sequence (P08069 31-736 limits assumed): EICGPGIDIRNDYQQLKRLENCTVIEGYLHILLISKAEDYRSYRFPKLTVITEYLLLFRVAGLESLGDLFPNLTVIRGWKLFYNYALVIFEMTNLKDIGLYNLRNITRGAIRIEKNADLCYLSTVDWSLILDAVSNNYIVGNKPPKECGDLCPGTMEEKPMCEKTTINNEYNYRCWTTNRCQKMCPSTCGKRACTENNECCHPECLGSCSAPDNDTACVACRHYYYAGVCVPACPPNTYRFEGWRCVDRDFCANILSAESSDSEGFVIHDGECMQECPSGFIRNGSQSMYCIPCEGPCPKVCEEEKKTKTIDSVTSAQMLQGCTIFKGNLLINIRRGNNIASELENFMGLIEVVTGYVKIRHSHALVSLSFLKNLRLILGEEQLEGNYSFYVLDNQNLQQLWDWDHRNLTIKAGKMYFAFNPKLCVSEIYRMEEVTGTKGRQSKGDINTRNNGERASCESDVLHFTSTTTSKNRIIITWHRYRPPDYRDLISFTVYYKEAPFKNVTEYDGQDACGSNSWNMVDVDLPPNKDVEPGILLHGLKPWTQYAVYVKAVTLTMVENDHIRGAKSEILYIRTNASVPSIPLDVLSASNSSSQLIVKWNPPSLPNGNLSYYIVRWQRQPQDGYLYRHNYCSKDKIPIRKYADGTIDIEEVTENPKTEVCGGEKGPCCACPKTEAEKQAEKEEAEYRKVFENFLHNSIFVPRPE
# T1 sequence (P08069 741-1367 partner limits assumed): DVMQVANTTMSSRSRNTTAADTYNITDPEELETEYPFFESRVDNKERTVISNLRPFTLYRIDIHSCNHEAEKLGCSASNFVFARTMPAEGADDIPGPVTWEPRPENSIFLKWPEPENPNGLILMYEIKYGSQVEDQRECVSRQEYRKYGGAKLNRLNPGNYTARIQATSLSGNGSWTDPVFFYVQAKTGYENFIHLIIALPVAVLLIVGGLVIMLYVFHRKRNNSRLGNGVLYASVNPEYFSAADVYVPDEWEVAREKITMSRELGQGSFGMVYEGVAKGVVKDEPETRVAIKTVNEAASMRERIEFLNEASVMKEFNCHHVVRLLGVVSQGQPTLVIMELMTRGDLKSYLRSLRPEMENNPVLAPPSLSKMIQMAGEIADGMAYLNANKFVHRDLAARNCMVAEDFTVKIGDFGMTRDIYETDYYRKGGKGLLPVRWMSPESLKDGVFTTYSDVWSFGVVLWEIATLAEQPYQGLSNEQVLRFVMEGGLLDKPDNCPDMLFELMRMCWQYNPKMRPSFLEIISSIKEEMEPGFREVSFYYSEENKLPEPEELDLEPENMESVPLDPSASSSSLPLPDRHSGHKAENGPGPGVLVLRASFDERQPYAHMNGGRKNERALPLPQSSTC
# Protocol: Receptor-Binding Assays. […] Subsequent to incubation, mixtures are diluted with 1 ml of ice-cold buffer and centrifuged (10,000 g) for 5 min at 4° C. The supernatant will then be removed by aspiration, and the membrane pellet counted for radioactivity. […] Binding data were analyzed by a two-site sequential model. A corresponding microtiter plate antibody assay using the IGF Type I receptor was employed to assess cross-binding to this homologous receptor.
# DNA for transfection was prepared according to the method of Mynarcik et al. (J. Biol. Chem., 1997, 272, pp 18650-18655). The receptor cDNAs were expressed transiently in PEAK rapid cells using polyethyleneimine. Cells were harvested by lysis in 0.15M NaCl and 0.1M Tris (pH 8) containing 1% (v/v) Triton X-100 and protease inhibitor cocktail three days post-transfection. Lysates were stored at −80° C. until assay. Receptor-binding assays were performed as described by Mynarcik. Microtiter strip plates (Nunc Maxisorb) were incubated overnight at 4° C. with anti-FLAG IgG ([…] of a […] solution in PBS). […] Binding data were analyzed by a two-site sequential model with homologous or heterologous labeled and unlabeled ligands to obtain dissociation constants as described by Whittaker et al. (J. Biol. Chem., 2001, 276, pp 43980-43986).
# [2] = tested on: human breast cancer cell line MCF-7; experiment: Mitogenicity in cell culture (cell growth, DNA content); format: cell-based; conditions: MCF-7, 3-days exposure, cell number and DNA content
# Protocol: Growth media were supplemented with 10% fetal bovine serum (FBS) (Invitrogen Life Technologies, Inc., Carlsbad, AA), penicillin (100 U/ml) and streptomycin (100 ug/mL). Approximately 1.0×10^5 cells were seeded into 35-mm dishes and cultured until subconfluent. Two assays were employed: (i) Cell-growth curves were determined by hemocytometry. Approximately 5×10^4 were seeded into a 24-well plate and cultured for 24 h. After 24 hour, the medium was removed and replaced with fresh medium containing 0.1% BSA. […] Cell numbers were determined after 3-days exposure to the hormones. (ii) Cell DNA content was determined using a DNA measurement kit (Invitrogen) following 3-days exposure to the hormones in cell culture as above.
# [3] = tested on: diabetic Lewis rats; experiment: Blood glucose lowering in streptozotocin-diabetic rats; format: in vivo, rat; conditions: streptozotocin-diabetic male Lewis rats, 1.5 U/kg subcutaneously, 0-90 min
# Protocol: Male Lewis rats (˜250 g body weight) were rendered diabetic with streptozotocin. […] Rats were injected subcutaneously at time=0 with 1.5 U/kg body weight in 100 μl of diluent. Blood was obtained from clipped tip of the tail at time 0 and every 10 minutes up to 90 min. Blood glucose was measured using a Hypoguard Advance Micro-Draw meter.
# [4] = Thermodynamic stability by guanidine denaturation; format: physicochemical; conditions: 37° C. and pH 7.4
# Protocol: Circular Dichroism—Samples were dissolved in either 10 mM phosphate and 100 mM KCl (pH 7.4) or 0.01 N HCl (pH 2.0) at a protein concentration of 25 μM. To remove particulate matter and protein aggregates, samples were filtered ([…]; Satorius, Goetlingen, Germany). Spectra, acquired with an Aviv spectropolarimeter (Aviv Biomedical, Inc., Lakewood, N.J.), were normalized. […]
# [5] = Fibrillation assay (thioflavin T fluorescence); format: physicochemical; conditions: zinc free, 60 μM, pH 7.4, 37° C., tilting table
# Protocol: Samples (in triplicate) were placed in sealed glass vials and placed on an automated tilting table at 37° C. At successive times aliquots were withdrawn and analyzed by a thioflavin T (ThT) fluorescence spectroscopy assay to determine the onset of fibrillation as follows.
# Thioflavin T (ThT) was made 1 mM in double-distilled water and stored at 4° C. in the dark. To monitor fibrillation, 10-μl aliquots of samples were obtained at indicated time points and were mixed with 3 ml of ThT assay buffer (5 μM ThT in 50 mM Tris-HCl (pH 7.5) and 100 mM NaCl). Fluorescence measurements were performed using an Aviv spectrofluorometer in 1-cm quartz cuvettes. Emission spectra were collected from 470 to 500 nm following excitation at 450 nm; the integration time was 1 s. ThT in buffer without protein was used as baseline. The fibrillation lag time is defined as the time required to observe twofold enhancement in ThT emission. The threshold of twofold-enhanced ThT fluorescence is followed a rapid increase in turbidity associated with elongation of mature fibrils and a further increase in ThT fluorescence.
Substance,IGFR Relative Affinity [1],mitogenicity ([2]; listed as 57 mer single-chain insulin analogue),rate of decrease of blood glucose concentration [3],mitogenicity [2],ΔGu [4],Lag time (days ± 10%) [5]
IGF-I,1,,,,,
"57mer single-chain analogue: 57-mer single-chain insulin, SEQ ID NO: 26; His^A8, Asp^B10, Asp^B28, Pro^B29 substitutions; six-residue linker GGGPRR between B30 and A1",,indistinguishable from human insulin; also recorded: significantly less mitogenic than IGF-I,62.0±16.3 mg/dL per h,,,
"Corresponding two-chain analogue: two-chain insulin analogue with His^A8, Asp^B10, Asp^B28, Pro^B29 substitutions; SEQ ID NOS: 28 and 29",,,53.2±11.7 mg/dL per h,intermediate between the single-chain insulin analogue,3.6 kcal/mol,70 ± 5 days
